One test deals with Enterobacter cloacae. Put plainly: In vitro antibacterial activity against Enterobacter cloacae OMNFI 174. It is filed as functional.
The subject of test [1] is Escherichia coli. Put plainly: In vitro antibacterial activity against Escherichia coliCPX-R OBT 431. Format: functional.
For test [2], the system named is Enterococcus faecalis. Put plainly: In vitro antibacterial activity against Enterococcus faecalis UCMC 39690. Format: functional.
The test system of the next test is Proteus mirabilis. Put plainly: In vitro antibacterial activity against Proteus mirabilis OBT 505. Format: functional.
Test [3] relates to Enterococcus faecalis. Put plainly: In vitro antibacterial activity against Enterococcus faecalis LEP Br. Format: functional.
The subject of the next test is Proteus vulgaris. Put plainly: In vitro antibacterial activity against Proteus vulgaris CNUR 6. Format: functional.
For test [4], the system named is Staphylococcus aureus. Put plainly: In vitro antibacterial activity against Staphylococcus aureus MPR 5. It is filed as functional.
Another test deals with Streptococcus pneumoniae. Put plainly: In vitro antibacterial activity against Streptococcus pneumoniae I 0.43. It is filed as functional.
Test [5] deals with Pseudomonas aeruginosa. Put plainly: In vitro antibacterial activity against Pseudomonas aeruginosa […] 9027. It is filed as functional.
The test system of test [6] is Staphylococcus aureus. Put plainly: In vitro antibacterial activity against Staphylococcus aureus ATCC 29213. Format: functional.
The subject of test [7] is Staphylococcus aureus. Put plainly: In vitro antibacterial activity against Staphylococcus aureus M-R POMM 6214. It is filed as functional.
Test [8] deals with Pseudomonas aeruginosa. Put plainly: In vitro antibacterial activity against Pseudomonas aeruginosa OBT 307. It is filed as functional.
Test [9] relates to Escherichia coli. Put plainly: In vitro antibacterial activity against Escherichia coli 120. It is filed as functional.
The next test has as its system Klebsiella pneumoniae. Put plainly: In vitro antibacterial activity against Klebsiella pneumoniae ATCC 10031. Format: functional.
Test [10] can be described thus: Mean MIC against gram negative. It is filed as functional.
The target of the next test is DNA gyrase (Escherichia coli, UniProt P0AES4+P0AES6). Put plainly: Inhibitory effect against Escherichia coli Gyrase in Supercoiling assay. Format: protein-complex assay.
Test [11] is described as follows: Mean MIC against gram positive. Format: functional.
A further test relates to Streptococcus pyogenes. Put plainly: In vitro antibacterial activity against Streptococcus pyogenes OMNFI BI. It is filed as functional.
The subject of test [12] is Staphylococcus aureus. Put plainly: In vitro antibacterial activity against Staphylococcus aureus CPX-R OBT 687. Format: functional.
Test [13] concerns Escherichia coli. Put plainly: In vitro antibacterial activity against Escherichia coli ATCC 25922. It is filed as functional.
In the next test the test system is Haemophilus influenzae. Put plainly: In vitro antibacterial activity against Haemophilus influenzae. Format: functional.
A short description of test [14]: Mean MIC Against gram positive. It is filed as functional.

Each structure is given as a SMILES string. Values after ≈ are worked out from the molar mass of the structure shown.

As usually defined, the IC50 is the concentration that gives 50% inhibition. Low readings indicate higher potency, high ones lower potency. Regarding `Cc1c(N2CCc3ccccc3C2)c(F)cc2c(=O)c(C(=O)O)cn(C3CC3)c12`, the MIC against Enterobacter cloacae was 0.5 µg/mL (≈ 1.27 µM); in the test with Escherichia coli [1] it was more than 16 µg/mL; in the test on Enterococcus faecalis [2], 0.06 µg/mL (≈ 0.153 µM); against Proteus mirabilis, 4 µg/mL (≈ 10.2 µM); in the test with Enterococcus faecalis [3], 0.5 µg/mL (≈ 1.27 µM); with Proteus vulgaris it was 4 µg/mL (≈ 10.2 µM). Further, the MIC is less than 0.016 µg/mL against Staphylococcus aureus [4]; 0.25 µg/mL (≈ 0.637 µM) with Streptococcus pneumoniae; 4 µg/mL (≈ 10.2 µM) in the test on Pseudomonas aeruginosa [5]; less than 0.016 µg/mL against Staphylococcus aureus [6]; less than 0.016 µg/mL against Staphylococcus aureus [7]; 16 µg/mL (≈ 40.8 µM) in the test on Pseudomonas aeruginosa [8]. Besides, the MIC in the test with Escherichia coli [9] was found to be 0.25 µg/mL (≈ 0.637 µM); against Klebsiella pneumoniae, 0.06 µg/mL (≈ 0.153 µM); in test [10] it was 0.869 µg/mL (≈ 2.21 µM); in [11] it was 0.074 µg/mL (≈ 0.189 µM); in the test with Streptococcus pyogenes, 0.03 µg/mL (≈ 0.0764 µM); in the test with Staphylococcus aureus [12] it was 1 µg/mL (≈ 2.55 µM). Besides, the MIC is 0.125 µg/mL (≈ 0.319 µM) against Escherichia coli [13] and less than 0.016 µg/mL in the test on Haemophilus influenzae. The compound also had an IC50 against DNA gyrase of 7.64 µM.
On to `O=C(O)c1cn(C2CC2)c2cc(N3CCc4ccccc4C3)c(F)cc2c1=O`, for which the MIC was 1 µg/mL (≈ 2.64 µM) with Enterobacter cloacae; more than 16 µg/mL with Escherichia coli [1]; 0.06 µg/mL (≈ 0.159 µM) with Enterococcus faecalis [2]; 4 µg/mL (≈ 10.6 µM) in the test on Proteus mirabilis; 0.25 µg/mL (≈ 0.661 µM) in the test on Enterococcus faecalis [3]; more than 16 µg/mL against Proteus vulgaris. Also, the MIC was less than 0.016 µg/mL against Staphylococcus aureus [4]; 0.25 µg/mL (≈ 0.661 µM) against Streptococcus pneumoniae; 4 µg/mL (≈ 10.6 µM) against Pseudomonas aeruginosa [5]; less than 0.016 µg/mL in the test with Staphylococcus aureus [6]; 0.25 µg/mL (≈ 0.661 µM) against Staphylococcus aureus [7]; 8 µg/mL (≈ 21.1 µM) with Pseudomonas aeruginosa [8]. Moreover, the MIC with Escherichia coli [9] stood at 0.25 µg/mL (≈ 0.661 µM); in the test on Klebsiella pneumoniae it was 0.125 µg/mL (≈ 0.33 µM); in test [10], 1.15 µg/mL (≈ 3.04 µM); in [11], 0.21 µg/mL (≈ 0.555 µM); in the test with Streptococcus pyogenes, 2 µg/mL (≈ 5.29 µM); with Staphylococcus aureus [12], 8 µg/mL (≈ 21.1 µM). In addition, the MIC in the test with Escherichia coli [13] was 0.25 µg/mL (≈ 0.661 µM); with Haemophilus influenzae, less than 0.016 µg/mL. Moreover, at DNA gyrase, the IC50 was 28.5 µM.
With `Cc1c(N2CCCCC2)c(N)cc2c(=O)c(C(=O)O)cn(C3CC3)c12`, the MIC with Enterobacter cloacae is 1 µg/mL (≈ 2.93 µM); against Escherichia coli [1], more than 16 µg/mL; with Enterococcus faecalis [2] it was 1 µg/mL (≈ 2.93 µM); with Proteus mirabilis it was 4 µg/mL (≈ 11.7 µM); in the test with Enterococcus faecalis [3], 0.5 µg/mL (≈ 1.46 µM); with Proteus vulgaris, more than 16 µg/mL. In addition, the MIC in the test with Staphylococcus aureus [4] is less than 0.016 µg/mL; against Streptococcus pneumoniae it was 2 µg/mL (≈ 5.86 µM); in the test with Pseudomonas aeruginosa [5] it was 4 µg/mL (≈ 11.7 µM); with Staphylococcus aureus [6] it was 0.05 µg/mL (≈ 0.146 µM); in the test with Staphylococcus aureus [7], 0.125 µg/mL (≈ 0.366 µM); against Pseudomonas aeruginosa [8], 16 µg/mL (≈ 46.9 µM). Further, the MIC against Escherichia coli [9] is 0.5 µg/mL (≈ 1.46 µM); in the test on Klebsiella pneumoniae it was less than 0.016 µg/mL; in [10] it was 1 µg/mL (≈ 2.94 µM); in test [11], 0.376 µg/mL (≈ 1.1 µM); against Streptococcus pyogenes it was 0.5 µg/mL (≈ 1.46 µM); in the test on Staphylococcus aureus [12] it was 8 µg/mL (≈ 23.4 µM). In addition, the MIC was 0.125 µg/mL (≈ 0.366 µM) with Escherichia coli [13] and less than 0.016 µg/mL against Haemophilus influenzae. Further, the concentration for half-maximal inhibition (IC50) at DNA gyrase was 9.37 µM.
For `O=C(O)c1cn(C2CC2)c2cc(N3CCCCC3)c(F)cc2c1=O`, the MIC in the test on Enterobacter cloacae is 0.5 µg/mL (≈ 1.51 µM); in the test on Escherichia coli [1] it was more than 16 µg/mL; with Enterococcus faecalis [2] it was 0.25 µg/mL (≈ 0.757 µM); in the test with Proteus mirabilis, 2 µg/mL (≈ 6.05 µM); against Enterococcus faecalis [3], 0.5 µg/mL (≈ 1.51 µM); with Proteus vulgaris, more than 16 µg/mL. Besides, the MIC in the test with Staphylococcus aureus [4] is 0.03 µg/mL (≈ 0.0908 µM); in the test on Streptococcus pneumoniae, 1 µg/mL (≈ 3.03 µM); in test [14], 0.495 µg/mL (≈ 1.5 µM); with Pseudomonas aeruginosa [5], 4 µg/mL (≈ 12.1 µM); against Staphylococcus aureus [6] it was 0.03 µg/mL (≈ 0.0908 µM); with Staphylococcus aureus [7], 0.25 µg/mL (≈ 0.757 µM). The MIC is 4 µg/mL (≈ 12.1 µM) against Pseudomonas aeruginosa [8]; 0.25 µg/mL (≈ 0.757 µM) against Escherichia coli [9]; less than 0.016 µg/mL with Klebsiella pneumoniae; 0.71 µg/mL (≈ 2.15 µM) in test [10]; 8 µg/mL (≈ 24.2 µM) in the test with Streptococcus pyogenes; more than 16 µg/mL with Staphylococcus aureus [12]. Further, the MIC in the test with Escherichia coli [13] was 0.125 µg/mL (≈ 0.378 µM); against Haemophilus influenzae it was less than 0.016 µg/mL. Besides, the IC50 against DNA gyrase was 97.2 µM.
Consider `Cc1c(N2CCN(C)CC2)c(N)cc2c(=O)c(C(=O)O)cn(C3CC3)c12`, for which the MIC with Enterobacter cloacae was 0.125 µg/mL (≈ 0.351 µM); against Escherichia coli [1], more than 16 µg/mL; in the test on Enterococcus faecalis [2], 4 µg/mL (≈ 11.2 µM); against Proteus mirabilis, 1 µg/mL (≈ 2.81 µM); in the test with Enterococcus faecalis [3], 2 µg/mL (≈ 5.61 µM); in the test with Proteus vulgaris it was 8 µg/mL (≈ 22.4 µM). Further, the MIC with Staphylococcus aureus [4] worked out at 1 µg/mL (≈ 2.81 µM); in the test with Streptococcus pneumoniae, 8 µg/mL (≈ 22.4 µM); against Pseudomonas aeruginosa [5], 2 µg/mL (≈ 5.61 µM); against Staphylococcus aureus [6], 1 µg/mL (≈ 2.81 µM); against Staphylococcus aureus [7], 4 µg/mL (≈ 11.2 µM); in the test on Pseudomonas aeruginosa [8] it was 8 µg/mL (≈ 22.4 µM). The MIC in the test on Escherichia coli [9] is 0.06 µg/mL (≈ 0.168 µM); against Klebsiella pneumoniae, 0.03 µg/mL (≈ 0.0842 µM); in test [10] it was 0.459 µg/mL (≈ 1.29 µM); in test [11], 3.36 µg/mL (≈ 9.44 µM); in the test with Streptococcus pyogenes it was 4 µg/mL (≈ 11.2 µM); with Staphylococcus aureus [12], more than 16 µg/mL. In addition, the MIC with Escherichia coli [13] and in the test on Haemophilus influenzae was 0.03 µg/mL (≈ 0.0842 µM) each time. This compound gave an IC50 against DNA gyrase of 10.7 µM.

Values taken from ChEMBL document CHEMBL1129595, “Potent 6-desfluoro-8-methylquinolones as new lead compounds in antibacterial chemotherapy” (J Med Chem, 1996).
